Assay results as given in US3988462A (priority 1972, dated 1976).
Converted amounts (≈) assume the structure as drawn. Like-named read-outs stand apart in the source and are kept apart here.

What was measured:
[1] = tested on: influenza virus-A2 /Kumamoto; type: in vivo, mice
[2] = Cytotoxicity, tube dilution method; type: cell-based; conditions: read-out: Minimum Inhibitory Concentration, tube dilution method
Experimental: (§1) A solution containing Antibiotic TS-885 was prepared as follows to determine the biological activity of Antibiotic TS-885. A 100 mg amount of 3-(5,7-dimethyl-2-hydroxy-4-oxo-6,8-decadienyl)-glutarimide (Antibiotic TS-885) was dissolved in a mixture of 0.6 ml of dimethyl-sulfoxide and 0.02 ml of polyoxyethylene sorbitane monolaurate (EO : 20). A 1.0 ml amount of a stirred saline solution (0.01 M phosphate buffered saline, pH 7.2) was added to the mixture to form a uniform solution which was followed by the addition of 48 ml of the saline solution. By this procedure a stock solution of Antibiotic TS-885 having a concentration of 2 mg/ml was prepared. The stock solution was diluted with the buffer solution for the following tests.
(§2) The cytotoxicity of Antibiotic TS-885 against various tissue culture cells was observed by the following two methods:
b. a tube dilution method
(§3) After 24 hours, the medium was removed and the plates were overlaid with 5 ml of an agar medium and one cylinder was placed on the medium. A 0.25 ml amount of a test sample was placed in the cylinder. After maintaining the plates for 2 hours at room temperature to diffuse Antibiotic TS-885 into the agar, the plate was incubated in the CO2 incubator at 37° C. After 48 hours, the cytotoxic effect of Antibiotic TS-885 was determined by the size of the diameter of the growth inhibitory zone around the cylinder. (2) In the tube dilution method, 2 × 10^5 cells were inoculated into a small test tube, and the tubes were incubated at 37° C for 24 hours. Solutions containing various concentrations of Antibiotic TS-885 were added to tubes of the cells and reincubated at […]. After 48 hours, the degenerated cells were microscopically observed.

Solubility = type: physicochemical
[3] = tested on: Vesicular stomatitis virus; experiment: microbe, parasite or virus in culture; type: cell-based
yeasts = type: cell-based
Trychophyton rubrum = experiment: microbe, parasite or virus in culture; type: cell-based; conditions: read-out: Minimum inhibitory concentration
[4] = Cytotoxicity, cylinder method; type: cell-based; conditions: read-out: Minimum Inhibitory Concentration, cylinder method
Experimental: as §1, §2
a. a cylinder method (on a thin seed plate)
a. A 10 ml amount of a cell suspension (3 × 10^5 cells/ml) was seeded in a petri dish having a diameter of 90 mm. The plates were incubated in a CO2 incubator at 37° C.
as §3

Candida alibicans = experiment: Antimicrobial activity (Table III); type: cell-based; conditions: Sabouraud's agar (S.A.), read-out: Minimum inhibitory concentration
Experimental: as §1
(§4) The antimicrobial spectra were observed by the pulp disc diffusion method and the agar streak method, and the results are shown in Tables II and III.

[5] = tested on: Saccharomyces fragilis IAM 7160; experiment: Antimicrobial activity (Table III); type: cell-based; conditions: IAM7160, Malt Agar (M.A.), read-out: Minimum inhibitory concentration
Experimental: as §1, §4

[6] = tested on: Hansenula anomala IFO 0118; experiment: Antimicrobial activity (Table III); type: cell-based; conditions: IFO0118, Malt Agar (M.A.), read-out: Minimum inhibitory concentration
Experimental: as §1, §4

[7] = tested on: Brettanomyces anomalus IFO 0648; experiment: Antimicrobial activity (Table III); type: cell-based; conditions: IFO0648, Malt Agar (M.A.), read-out: Minimum inhibitory concentration
Experimental: as §1, §4

[8] = tested on: Cryptococcus albidus IFO 0378; experiment: Antimicrobial activity (Table III); type: cell-based; conditions: Naganishia albida, IFO0378; Malt Agar (M.A.); read-out: Minimum inhibitory concentration
Experimental: as §1, §4

Torula rubra var alpa = experiment: Antimicrobial activity (Table III); type: cell-based; conditions: Malt Agar (M.A.), read-out: Minimum inhibitory concentration
Experimental: as §1, §4

R. rubra IFO 0001 = experiment: Antimicrobial activity (Table III); type: cell-based; conditions: Malt Agar (M.A.); read-out: Minimum inhibitory concentration
Experimental: as §1, §4

[9] = tested on: Phodotorula glutinis IFO 0754; experiment: Antimicrobial activity (Table III); type: cell-based; conditions: Malt Agar (M.A.); read-out: Minimum inhibitory concentration
Experimental: as §1, §4

[10] = tested on: Saccharomyces sake HUT 7119; experiment: Antimicrobial activity (Table III); type: cell-based; conditions: HUT7119, Malt Agar (M.A.), read-out: Minimum inhibitory concentration
Experimental: as §1, §4

[11] = tested on: Saccharomyces rosei AHU 3174; experiment: Antimicrobial activity (Table III); type: cell-based; conditions: Torulaspora delbrueckii, AHU3174; Malt Agar (M.A.); read-out: Minimum inhibitory concentration
Experimental: as §1, §4

[12] = tested on: Staphylococcus aureus 209P; experiment: microbe, parasite or virus in culture; type: cell-based; conditions: read-out: Minimum inhibitory concentration
[13] = Toxicity in mice, repeated intravenous administration; type: in vivo; conditions: 20 mg/kg per day intravenous, once daily for 10 days (total 200 mg/kg)
Mycoplasma pneumoniae = experiment: microbe, parasite or virus in culture; type: cell-based; conditions: read-out: Minimum inhibitory concentration
Candida utilis IFO 0396 = experiment: microbe, parasite or virus in culture; type: cell-based; conditions: Williopsis jadinii, IFO0396; read-out: Minimum inhibitory concentration
bacteria = type: cell-based
[14] = Serum concentration after intravenous injection in mice; conditions: mouse
mycoplasma = type: cell-based
Candida tropicalis = experiment: microbe, parasite or virus in culture; type: cell-based; conditions: read-out: Minimum inhibitory concentration
[15] = tested on: Candida parapsiiosis IFO 0708; experiment: microbe, parasite or virus in culture; type: cell-based; conditions: IFO0708, read-out: Minimum inhibitory concentration
poliovirus [16] = type: cell-based
poliovirus [17] = experiment: microbe, parasite or virus in culture; type: cell-based
[18] = tested on: mouse ascites tumor cells (Sarcoma 180); experiment: Antitumor effect in mice; type: in vivo; conditions: intraperitoneally, once daily for six days
Experimental: 1,000,000 mouse ascites tumor cells (Sarcoma 180) were transplanted intraperitoneally into mice. 24 Hours after the mice were treated with the transplanted tumor cells, the mice were injected with various doses of the antibiotic once daily for six days intraperitoneally. […] It is that the life span of the antibiotic treated mice was prolonged.

[19] = cited from earlier work
[20] = chicken, chick embryo fibroblast cells, MEM medium
[21] = human, hela s3 cells, YLE medium
[22] = monkey, monkey kidney cells, MEM medium
[23] = Vesicular stomatitis virus, in Gallus gallus, read-out: Diameter of plaque free zone
[24] = Enterovirus C, read-out: Diameter of plaque free zone

In the case of `NC12CC3CC(CC(C3)C1)C2` [Amantadine, 1,Adamantylamine, reference compound], the “Survival / treated × 100 %” value ([1]; 20 mg/kg, survival day 7) is reported as 100%, the “Survival / treated × 100 %” value ([1]; 20 mg/kg, survival day 10) is reported as 60% and the “Survival / treated × 100 %” value ([1]; 20 mg/kg, survival day 13) is reported as 10%. For the same compound, the “Survival / treated × 100 %” value ([1]; 20 mg/kg, survival day 15) was 0% and the “Survival / treated × 100 %” value ([1]; 20 mg/kg, survival day 20) was 0%.

Work on `CC=CC(C)=CC(C)C(=O)CC(O)CC1CC(=O)NC(=O)C1` (stereo not shown) [Antibiotic TS-885, 3-(5,7-dimethyl-2-hydroxy-4-oxo-6,8-decadienyl)-glutarimide] yielded an MCC at 48 h [2, 20] of 1 µg/mL, an MCC at 48 h [2, 21] of 0.4 µg/mL and an MCC at 48 h ([2]; human, p3 hr-1 cells, MEM medium) of 0.4 µg/mL. The MCC at 48 h [2, 22] was 0.4 µg/mL, the MCC at 48 h ([2]; mouse, l-cells, YLE medium) was 0.5 µg/mL and the Solubility (Solubility; acetone, chloroform, benzene, ethylacetate, ethanol, methanol, 1% aqueous sodium hydroxide solution, and pyridine) was “Soluble”. The Solubility (Solubility; benzene, ethyl acetate, acetone, ethanol 1% NaOH) was “Soluble”, the Solubility (Solubility; ether) was “Sparingly soluble” and the Solubility (Solubility; water) was “water insoluble”. For the same compound, the Solubility (Solubility; water and 5% aqueous hydrochloric acid) was “Insoluble”, the Antiviral effect ([3]; 20 mcg/ml) was “toxic” and the Antiviral effect ([3]; 62.5 mcg/ml) was “toxic”. The Antiviral effect ([3]; 100 mcg/ml) was “toxic”, the Antiviral effect ([3]; 125 mcg/ml) was “toxic” and the Antiviral effect ([3]; 250 mcg/ml) was “toxic”. It also gave a zone of inhibition at 0.3 µg/mL [3, 23] of 15.4 mm, a zone of inhibition at 0.6 µg/mL [3, 23] of 17.4 mm and a zone of inhibition at 1.25 µg/mL [3, 23] of 18.1 mm. It also gave a zone of inhibition at 2.5 µg/mL [3, 23] of 18.9 mm, a zone of inhibition at 5 µg/mL [3, 23] of 19.6 mm and a zone of inhibition at 10 µg/mL [3, 23] of 22.9 mm. For the same compound, the zone of inhibition at 20 µg/mL [3, 23] was 26.2 mm, the zone of inhibition at 62.5 µg/mL [3, 23] was 28.8 mm and the zone of inhibition at 100 µg/mL [3, 23] was 31.7 mm. For the same compound, the zone of inhibition at 125 µg/mL [3, 23] was 33.2 mm, the zone of inhibition at 250 µg/mL [3, 23] was 42 mm and the “inhibitory activity against some yeasts” value (yeasts) was “inhibitory activity against some yeasts”. For the same compound, the MIC (Trychophyton rubrum) was 1000 µg/mL (≈ 3250 µM), the “Survival / treated × 100 %” value ([1]; 7 mg/kg intraperitoneally, survival day 7) was 100% and the “Survival / treated × 100 %” value ([1]; 7 mg/kg intraperitoneally, survival day 10) was 60%. The “Survival / treated × 100 %” value ([1]; 7 mg/kg intraperitoneally, survival day 13) was 35%, the “Survival / treated × 100 %” value ([1]; 7 mg/kg intraperitoneally, survival day 15) was 35% and the “Survival / treated × 100 %” value ([1]; 7 mg/kg intraperitoneally, survival day 20) was 35%. The “Survival / treated × 100 %” value ([1]; 22 mg/kg intraperitoneally, survival day 7) was 100%, the “Survival / treated × 100 %” value ([1]; 22 mg/kg intraperitoneally, survival day 10) was 80% and the “Survival / treated × 100 %” value ([1]; 22 mg/kg intraperitoneally, survival day 13) was 50%. The “Survival / treated × 100 %” value ([1]; 22 mg/kg intraperitoneally, survival day 15) was 50%, the “Survival / treated × 100 %” value ([1]; 22 mg/kg intraperitoneally, survival day 20) was 50% and the survival rate ([1]; 22 mg/kg, day not stated (footnote to Table VIII)) was 50%. The MCC at 48 h [4, 20] was 0.5 µg/mL, the MCC at 48 h [4, 21] was 0.2 µg/mL and the MCC at 48 h [4, 22] was 0.2 µg/mL. For the same compound, the MCC at 48 h ([4]; mouse, l-cells, YLE medium) was 0.25 µg/mL, the MIC (Candida alibicans) was greater than 100 µg/mL and the MIC [5] was 20 µg/mL (≈ 65.1 µM). It also gave an MIC [6] of 20 µg/mL (≈ 65.1 µM), an MIC [7] greater than 100 µg/mL and an MIC [8] of 4 µg/mL (≈ 13 µM). The MIC (Torula rubra var alpa) was 4 µg/mL (≈ 13 µM), the MIC (R. rubra IFO 0001) was 20 µg/mL (≈ 65.1 µM) and the MIC [9] was 100 µg/mL (≈ 325 µM). It also gave an MIC [10] of 4 µg/mL (≈ 13 µM), an MIC [11] of 100 µg/mL (≈ 325 µM) and an MIC [12] greater than 1000 µg/mL. The signs of toxicity [13] was “No signs of toxicity were observed”, the MIC (Mycoplasma pneumoniae) was greater than 1000 µg/mL and the MIC (Candida utilis IFO 0396) was 100 µg/mL (≈ 325 µM). For the same compound, the antibacterial activity (bacteria) was “no antibacterial”, the concentration at 10 min ([14]; 2.5 mg/kg) was 1800 ng/mL and the concentration at 0.5 h ([14]; 2.5 mg/kg) was 580 ng/mL. For the same compound, the concentration at 10 min ([14]; 25 mg/kg) was 2900 ng/mL, the concentration at 0.5 h ([14]; 25 mg/kg) was 2400 ng/mL and the antimycoplasmal activity (mycoplasma) was “no antibacterial and antimycoplasmal activity”. For the same compound, the MIC (Candida tropicalis) was 100 µg/mL (≈ 325 µM), the MIC [15] was greater than 100 µg/mL and the Antiviral effect (poliovirus [16]; 0.5 mcg/ml) was “Toxic”. For the same compound, the Antiviral effect (poliovirus [16]; 1 mcg/ml) was “Toxic”, the Antiviral effect (poliovirus [16]; 10 mcg/ml) was “Toxic” and the Antiviral effect (poliovirus [17]; 12.5 mcg/ml) was “toxic”. The Antiviral effect (poliovirus [17]; 25 mcg/ml) was “toxic”, the zone of inhibition at 0.5 µg/mL (poliovirus [17]; [24]) was 15 mm and the zone of inhibition at 1 µg/mL (poliovirus [17]; [24]) was 19.4 mm. For the same compound, the zone of inhibition at 5 µg/mL (poliovirus [17]; [24]) was 25 mm, the zone of inhibition at 6.25 µg/mL (poliovirus [17]; [24]) was 28.4 mm and the zone of inhibition at 12.5 µg/mL (poliovirus [17]; [24]) was 29.2 mm. For the same compound, the zone of inhibition at 25 µg/mL (poliovirus [17]; [24]) was 36 mm, the “growth of the ascites tumor” value ([18]; 2.5 mg/mouse per day) was “inhibits growth of the ascites tumor” and the “life span of the antibiotic treated mice” value [18] was “prolonged”.

In the case of `C=C/C(C)=C/[C@H](C)C(=O)C[C@H](O)CC1CC(=O)NC(=O)C1` [Streptimidone], the Solubility ([19]; benzene, ethyl acetate, acetone, ethanol) is given as “Soluble” and the Solubility ([19]; water) is given as “insoluble”.
